Laboratory results from patent US5276139A, “Haptens useful in evaluating inhibition of PNN elastase by N-substituted azetidinones” (Merck & Co., Inc., priority 1991, dated 1994).

Test system: antibody R674
Experiment: Radioimmune assay: displacement of 3H-Compound A' or 3H-Compound B' from antibody R674
Type: binding, rabbit
Conditions: up to 10 μM (the highest concentration tested)
Procedure: Non-antibody-bound radioactive isotope was removed from the reaction mixture by its absorption onto dextran-coated activated charcoal. […] The activated charcoal was then suspended to 3% (w/v) in PBS dextran and allowed to stand overnight, washed once again in PBS dextran and resuspended to 3% (w/v) in PBS dextran and stored at 4° C. Immediately before use in the assay, the dextran-coated activated charcoal was diluted 10-fold in DULBECCO's PBS and 1 ml was added to each assay tube. […] The supernatant fluid was decanted into 9 ml of AQUASOL-2 scintillation fluid and radioactivity counted in a beta-counter. Each assay contains charcoal free controls, to which 1 ml PBS was added, for determination of total counts (BO), and antibody free controls for determination of non-specific binding. Percent specific binding was determined by subtracting the value for non-specific binding from the value of total antiserum binding and then dividing by the total radioactivity added.
The antiserum was diluted in PET/GEL buffer (1:12,000 final dilution in the 200 μl assay volume) as described above so that it binds 20-30% of the total radioactivity added. The same diluted stock was then used for all assay tubes with-in the same assay. […] The assay was set up on a competition basis. The unlabeled reactivation product competed with the tritiated reactivation product for binding to the antibody R674. […]

Structure (SMILES) | effect on binding to antibody R674
NC(N)=O [Urea] | without effect
N=C(N)NCCC[C@H](N)C(=O)O [arginine] | without effect
